Where two headings read alike, the source gives them in different places. One block for each compound: values may come before it. Numbered stars: 1 amine (or outer) side, 2 acyl side, 3 side chain; on linkers, the order of the positions; unused ones are H or OH. Bridge positions count the residues as written; N and C are the ends. Square brackets hold non-standard residues; d marks the D form. Peptide text beside a SMILES is read from it. * marks the point of attachment. DOTA = O=C(O)CN1CCN(CC(=O)O)CCN(CC(=O)*)CCN(CC(=O)O)CC1; Tyr(3-I) = N[C@@H](Cc1ccc(O)c(I)c1)C(=O)O; Lys(Me3) = C[N+](C)(C)CCCC[C@H](N)C(=O)O; Phe(4-Cl) = N[C@@H](Cc1ccc(Cl)cc1)C(=O)O; Arg(Me) = CNC(=N)NCCC[C@H](N)C(=O)O; Dap(CONH2) = NC(=O)NC[C@H](N)C(=O)O; 2Pal = N[C@@H](Cc1ccccn1)C(=O)O; X1 = O=C(CC1CCN([*:1])CC1)[*:2]; Lys(Me) = CNCCCC[C@H](N)C(=O)O; Tle = CC(C)(C)[C@H](N)C(=O)O; αMeP = C[C@@]1(C(=O)O)CCCN1; Aib = CC(C)(N)C(=O)O; Guanidino = N=C(N)N*
Columns and labels:
[1] = biological target: T1, Fc-fusion protein of human PSMA (hPSMA-Fc) (Homo sapiens, UniProt Q04609); assay: Surface plasmon resonance assay (Biacore T200, single cycle kinetic); type: binding
T1 construct: purchased Acro Biosystems PSA-H5264
Outline: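 hPSMA-Fc was captured (~1000 RU) on an Fc-binding-peptide CM5 chip, and compounds were run in single cycle kinetic mode at 25° C in HBST with 0.1% DMSO. Double-blank-corrected sensorgrams were fitted to a 1:1 Langmuir model to give KD, reported as pKD.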

[2] = biological target: T2, PSMA-expressing C4-2 cells (Homo sapiens, UniProt Q04609); assay: FACS binding assay (competition with 50 nM PSM-0183)
T2 construct: PSMA-expressing C4-2 cells (ATCC, Cat. No. CRL-3314) were cultured in RPMI-1640; host or cells: C4-2 cells
Outline: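 C4-2 cells were incubated 1 h at 4 °C with 50 nM AF488-labelled peptide PSM-0183 plus increasing test compound concentrations, then washed twice in ice-cold buffer. Median fluorescence in the AF488 channel was read by flow cytometry. IC50/pIC50 was derived by 4PL fitting of MFI versus concentration.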

[3] = SPR, hPSMA-Fc, single cycle kinetic, 25° C., category, read-out: pKD CAT (converted)
[4] = FACS binding, C4-2 cells, competition with 50 nM PSM-0183, category, read-out: pIC50 [C4-2] CAT (converted)
[5] = pKD category for PSMA SPR activity assay, hPSMA-Fc, 25° C., read-out: pKD CAT (converted)
[6] = pIC50 category of FACS binding, C4-2 cells, read-out: pIC50 [C4-2] CAT (converted)

T2 sequence (Q04609 whole entry): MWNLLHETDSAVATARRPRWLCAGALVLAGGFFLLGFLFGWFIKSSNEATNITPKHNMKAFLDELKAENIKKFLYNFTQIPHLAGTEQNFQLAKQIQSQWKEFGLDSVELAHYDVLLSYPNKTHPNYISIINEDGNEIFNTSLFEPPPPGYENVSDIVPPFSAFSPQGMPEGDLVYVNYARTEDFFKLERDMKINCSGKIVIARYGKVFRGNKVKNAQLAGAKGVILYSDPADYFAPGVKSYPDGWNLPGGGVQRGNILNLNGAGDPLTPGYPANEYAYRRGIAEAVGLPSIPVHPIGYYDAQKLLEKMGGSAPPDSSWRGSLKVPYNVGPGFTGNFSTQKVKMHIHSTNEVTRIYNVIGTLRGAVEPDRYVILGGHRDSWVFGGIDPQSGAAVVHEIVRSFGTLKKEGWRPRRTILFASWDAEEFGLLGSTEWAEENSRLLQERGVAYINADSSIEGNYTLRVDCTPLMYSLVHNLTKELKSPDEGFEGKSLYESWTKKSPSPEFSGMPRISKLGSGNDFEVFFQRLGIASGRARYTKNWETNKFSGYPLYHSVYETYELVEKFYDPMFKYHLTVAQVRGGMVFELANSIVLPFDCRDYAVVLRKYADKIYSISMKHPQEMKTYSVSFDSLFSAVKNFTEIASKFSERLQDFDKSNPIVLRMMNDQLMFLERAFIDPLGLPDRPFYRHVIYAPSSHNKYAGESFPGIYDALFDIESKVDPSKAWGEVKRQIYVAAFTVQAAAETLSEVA
T1 sequence (Q04609 44-750 limits assumed): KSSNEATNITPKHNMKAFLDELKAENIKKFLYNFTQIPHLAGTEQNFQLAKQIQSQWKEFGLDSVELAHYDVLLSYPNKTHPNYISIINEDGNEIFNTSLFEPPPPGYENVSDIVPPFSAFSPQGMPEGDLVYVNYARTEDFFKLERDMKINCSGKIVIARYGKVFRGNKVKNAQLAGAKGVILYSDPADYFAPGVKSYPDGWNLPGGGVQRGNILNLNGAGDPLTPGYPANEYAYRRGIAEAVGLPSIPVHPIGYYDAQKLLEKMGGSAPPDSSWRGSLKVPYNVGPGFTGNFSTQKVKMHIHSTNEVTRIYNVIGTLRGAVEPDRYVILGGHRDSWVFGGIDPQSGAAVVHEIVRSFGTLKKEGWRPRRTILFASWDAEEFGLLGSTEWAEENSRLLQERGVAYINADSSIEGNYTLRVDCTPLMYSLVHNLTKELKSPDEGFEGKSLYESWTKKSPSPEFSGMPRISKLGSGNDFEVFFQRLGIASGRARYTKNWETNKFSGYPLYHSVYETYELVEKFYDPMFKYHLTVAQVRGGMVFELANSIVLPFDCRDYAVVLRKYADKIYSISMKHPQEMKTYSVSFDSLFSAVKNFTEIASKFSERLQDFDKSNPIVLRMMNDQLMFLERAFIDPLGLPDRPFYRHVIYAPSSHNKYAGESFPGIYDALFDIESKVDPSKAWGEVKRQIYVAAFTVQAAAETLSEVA

SMILES: CC(=O)N[C@H](C(=O)NC(C)(C)C(=O)N[C@@H](Cc1ccccc1)C(=O)N[C@H]1CSSC[C@@H](C(=O)N[C@H](C(=O)N[C@H](C(N)=O)[C@@H](C)O)C(C)(C)C)NC(=O)[C@H](CC(N)=O)NC(=O)[C@]2(C)CCCN2C(=O)[C@H](CCCNC(=N)N)NC(=O)[C@H](CCCCN)NC1=O)[C@@H](C)O [PSM-0233, Ac-Thr-Aib-Phe-[Cys-Lys-Arg-Pam-Asn-Cys]-Tle-Thr-NHZ] (Ac-T[Aib]FCKR[αMeP]NC[Tle]T-NH2; disulfide 4-9)
Kd [1, 3]: < 12.6 nM | IC50 [2, 4]: < 200 nM

SMILES: CC(=O)N[C@H](C(=O)NC(C)(C)C(=O)N[C@@H](Cc1ccccc1)C(=O)N[C@H]1CSSC[C@@H](C(=O)N[C@H](C(=O)N[C@H](C(=O)N[C@@H](CC(=O)O)C(N)=O)[C@@H](C)O)C(C)(C)C)NC(=O)[C@H](CC(N)=O)NC(=O)[C@H](C)NC(=O)[C@H](CNC(N)=O)NC(=O)[C@H](CCCCN)NC1=O)[C@@H](C)O [PSM-0180, Ac-Thr-Aib-Phe-[Cys-Lys-Gln-Ala-Asn-Cys]-Tle-Thr-Asp-NH2] (Ac-T[Aib]FCK[Dap(CONH2)]ANC[Tle]TD-NH2; disulfide 4-9)
Kd [1, 3]: 12.6 to 126 nM | IC50 [2, 4]: < 200 nM

SMILES: CC(=O)NC(C)(C)C(=O)N[C@@H](Cc1ccc(Cl)cc1)C(=O)N[C@H]1CSSC[C@@H](C(=O)N[C@H](C(=O)N[C@H](C(=O)N2CCC(CC(=O)N[C@H](CCCCNC(=O)CN3CCN(CC(=O)O)CCN(CC(=O)O)CCN(CC(=O)O)CC3)C(N)=O)CC2)[C@@H](C)O)C(C)(C)C)NC(=O)[C@H](CC(N)=O)NC(=O)C(C)(C)NC(=O)[C@H](CCC(=O)NC(=N)N)NC(=O)[C@H](CCCCN)NC1=O [PSM-0494, Ac-Aib-Pcf-[Cys-Lys-Gln(Gu)-Aib-Asn-Cys]-Tle-Thr-Cmp-lys(DOTA)-NH2] (Ac-[Aib][Phe(4-Cl)]CKE(Guanidino)[Aib]NC[Tle]T[X1][dK](DOTA)-NH2; disulfide 3-8)
Kd [1]: 12.6 to 126 nM | IC50 [2]: < 200 nM

SMILES: CNCCCC[C@@H]1NC(=O)[C@@H](NC(=O)[C@H](Cc2ccc(O)c(I)c2)NC(=O)C(C)(C)NC(=O)[C@@H](NC(C)=O)[C@@H](C)O)CSSC[C@@H](C(=O)N[C@H](C(=O)N[C@H](C(N)=O)[C@@H](C)O)C(C)(C)C)NC(=O)[C@H](CC(N)=O)NC(=O)C(C)(C)NC(=O)[C@H](CCCNC(=N)NC)NC1=O [PSM-0387, Ac-Thr-Aib-Miy-[Cys-Lys(Me)-Arg(Me)-Aib-Asn-Cys]-Tle-Thr-NH2] (Ac-T[Aib][Tyr(3-I)]C[Lys(Me)][Arg(Me)][Aib]NC[Tle]T-NH2; disulfide 4-9)
Kd [1, 5]: > 501 nM | IC50 [2, 6]: > 3160 nM

SMILES: CNCCCC[C@@H]1NC(=O)[C@@H](NC(=O)[C@H](Cc2ccccn2)NC(=O)C(C)(C)NC(=O)[C@@H](NC(=O)CC2CCN(C(=O)CN3CCN(CC(=O)O)CCN(CC(=O)O)CCN(CC(=O)O)CC3)CC2)[C@@H](C)O)CSSC[C@@H](C(=O)N[C@H](C(=O)N[C@H](C(N)=O)[C@@H](C)O)C(C)(C)C)NC(=O)[C@H](CC(N)=O)NC(=O)C(C)(C)NC(=O)[C@H](CCCNC(=N)NC)NC1=O [PSM-0257, DOTA-Cmp-Thr-Aib-Opa-[Cys-Lys(Me)-Arg(Me)-Aib-Asn-Cys]-Tle-Thr-NH2] ({DOTA}-[X1]T[Aib][2Pal]C[Lys(Me)][Arg(Me)][Aib]NC[Tle]T-NH2; disulfide 5-10)
Kd [1, 3]: 12.6 to 126 nM | IC50 [2, 4]: 200 to 1260 nM

The remaining lines, values ahead:

Kd ([1]; PSMA SPR assay, hPSMA-Fc, 25° C., pKD category, read-out: pKD CAT (converted)): < 12.6 nM | IC50 ([2]; FACS binding, PSMA-expressing C4-2 cells, pIC50 category, read-out: pIC50 [C4-2] CAT (converted)): < 200 nM
SMILES: CNC(=N)NCCC[C@@H]1NC(=O)[C@H](CCCCN)NC(=O)[C@@H](NC(=O)[C@H](Cc2ccc(Cl)cc2)NC(=O)C(C)(C)NC(=O)[C@@H](NC(=O)CC2CCN(C(=O)CN3CCN(CC(=O)O)CCN(CC(=O)O)CCN(CC(=O)O)CC3)CC2)[C@@H](C)O)CSSC[C@@H](C(=O)N[C@H](C(N)=O)C(C)(C)C)NC(=O)[C@H](CC(N)=O)NC(=O)C(C)(C)NC1=O [PSM-0345, DOTA-Cmp-Thr-Aib-Pcf-[Cys-Lys-Arg(Me)-Aib-Asn-Cys]-Tle-NH2] ({DOTA}-[X1]T[Aib][Phe(4-Cl)]CK[Arg(Me)][Aib]NC[Tle]-NH2; disulfide 5-10)

Kd [1, 5]: 12.6 to 126 nM | IC50 [2, 6]: < 200 nM
SMILES: CNC(=N)NCCC[C@@H]1NC(=O)[C@H](CCCC[N+](C)(C)C)NC(=O)[C@@H](NC(=O)[C@H](Cc2ccc(Cl)cc2)NC(=O)C(C)(C)NC(=O)[C@@H](NC(=O)CC2CCN(C(=O)CN3CCN(CC(=O)O)CCN(CC(=O)O)CCN(CC(=O)O)CC3)CC2)[C@@H](C)O)CSSC[C@@H](C(=O)N[C@H](C(=O)N[C@H](C(N)=O)[C@@H](C)O)C(C)(C)C)NC(=O)[C@H](CC(N)=O)NC(=O)C(C)(C)NC1=O [PSM-0483, DOTA-Cmp-Thr-Aib-Pcf-[Cys-KMe3-Arg(Me)-Aib-Asn-Cys]-Tle-Thr-NH2] ({DOTA}-[X1]T[Aib][Phe(4-Cl)]C[Lys(Me3)][Arg(Me)][Aib]NC[Tle]T-NH2; disulfide 5-10)
